Measurements as given in PubChem BioAssay (NCI).
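A five-concentration, 48-hour dose response in 96-well plates underlies each endpoint, interpolated linearly between surrounding concentrations. GI50 marks 50% less growth. TGI marks complete inhibition of growth.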

Key:
Assay in all cases: NCI anticancer screen, dose series, 48 h
U251 CNS = tested on: U251 CNS
UACC-62 melanoma = tested on: UACC-62 melanoma
HL-60(TB) leukemia = tested on: HL-60(TB) leukemia
NCI-H460 lung = tested on: NCI-H460 lung
NCI/ADR-RES ovarian = tested on: NCI/ADR-RES ovarian
RXF 393 renal = tested on: RXF 393 renal
TK-10 renal = tested on: TK-10 renal
IGROV1 ovarian = tested on: IGROV1 ovarian
SK-MEL-5 melanoma = tested on: SK-MEL-5 melanoma
MDA-MB-435 = tested on: MDA-MB-435
CAKI-1 renal = tested on: CAKI-1 renal
A498 renal = tested on: A498 renal
HOP-92 NSCLC = tested on: HOP-92 NSCLC
SK-MEL-28 melanoma = tested on: SK-MEL-28 melanoma
SW-620 colon = tested on: SW-620 colon
MDA-MB-231 breast = tested on: MDA-MB-231 breast
SR leukemia = tested on: SR leukemia
MALME-3M melanoma = tested on: MALME-3M melanoma
RPMI-8226 leukemia = tested on: RPMI-8226 leukemia
SN12C renal = tested on: SN12C renal
SK-MEL-2 melanoma = tested on: SK-MEL-2 melanoma
HCT-15 colon = tested on: HCT-15 colon
OVCAR-5 ovarian = tested on: OVCAR-5 ovarian
ACHN renal = tested on: ACHN renal
OVCAR-3 ovarian = tested on: OVCAR-3 ovarian
SK-OV-3 ovarian = tested on: SK-OV-3 ovarian
HS 578T breast = tested on: HS 578T breast
UACC-257 melanoma = tested on: UACC-257 melanoma
K-562 leukemia = tested on: K-562 leukemia
SNB-75 CNS = tested on: SNB-75 CNS
BT-549 breast = tested on: BT-549 breast
COLO 205 colon = tested on: COLO 205 colon
EKVX NSCLC = tested on: EKVX NSCLC
A549 NSCLC = tested on: A549 NSCLC
OVCAR-8 ovarian = tested on: OVCAR-8 ovarian
MCF7 breast = tested on: MCF7 breast
SF-539 CNS = tested on: SF-539 CNS
HOP-62 NSCLC = tested on: HOP-62 NSCLC
PC-3 prostate = tested on: PC-3 prostate
SNB-19 CNS = tested on: SNB-19 CNS
HT29 colon = tested on: HT29 colon
SF-268 CNS = tested on: SF-268 CNS
UO-31 renal = tested on: UO-31 renal
DU-145 prostate = tested on: DU-145 prostate
OVCAR-4 ovarian = tested on: OVCAR-4 ovarian
LOX IMVI melanoma = tested on: LOX IMVI melanoma
HCC-2998 colon = tested on: HCC-2998 colon
MOLT-4 leukemia = tested on: MOLT-4 leukemia
NCI-H226 lung = tested on: NCI-H226 lung
CCRF-CEM leukemia = tested on: CCRF-CEM leukemia
KM12 colon = tested on: KM12 colon
786-0 renal = tested on: 786-0 renal
M14 melanoma = tested on: M14 melanoma
SF-295 CNS = tested on: SF-295 CNS
HCT-116 colon = tested on: HCT-116 colon
NCI-H23 lung = tested on: NCI-H23 lung
T-47D breast = tested on: T-47D breast
NCI-H522 lung = tested on: NCI-H522 lung

Compound: COC(=O)C(=Cc1ccccc1[N+](=O)[O-])C(=O)OC
- GI50 (U251 CNS): 3.23 µM
- TGI (U251 CNS): 13.9 µM
- GI50 (UACC-62 melanoma): 3.79 µM
- TGI (UACC-62 melanoma): 15.5 µM
- GI50 (HL-60(TB) leukemia): 2780 nM
- TGI (HL-60(TB) leukemia): > 100 µM
- GI50 (NCI-H460 lung): 3.41 µM
- TGI (NCI-H460 lung): 13.7 µM
- GI50 (NCI/ADR-RES ovarian): 2310 nM
- TGI (NCI/ADR-RES ovarian): 5.77 µM
- GI50 (RXF 393 renal): 1870 nM
- TGI (RXF 393 renal): 4.3 µM
- GI50 (TK-10 renal): 5.93 µM
- TGI (TK-10 renal): 18.1 µM
- GI50 (IGROV1 ovarian): 3.41 µM
- TGI (IGROV1 ovarian): 12 µM
- GI50 (SK-MEL-5 melanoma): 2550 nM
- TGI (SK-MEL-5 melanoma): 9.2 µM
- GI50 (MDA-MB-435): 2260 nM
- TGI (MDA-MB-435): 10.2 µM
- GI50 (CAKI-1 renal): 3.61 µM
- TGI (CAKI-1 renal): 14.1 µM
- GI50 (A498 renal): 2750 nM
- TGI (A498 renal): 8.23 µM
- GI50 (HOP-92 NSCLC): 2380 nM
- TGI (HOP-92 NSCLC): 7.4 µM
- GI50 (SK-MEL-28 melanoma): 2160 nM
- TGI (SK-MEL-28 melanoma): 6.06 µM
- GI50 (SW-620 colon): 3.9 µM
- TGI (SW-620 colon): 12.7 µM
- GI50 (MDA-MB-231 breast): 3.68 µM
- TGI (MDA-MB-231 breast): 13.5 µM
- GI50 (SR leukemia): 1040 nM
- TGI (SR leukemia): 4.84 µM
- GI50 (MALME-3M melanoma): 4.44 µM
- TGI (MALME-3M melanoma): 18.1 µM
- GI50 (RPMI-8226 leukemia): 1270 nM
- TGI (RPMI-8226 leukemia): 3.63 µM
- GI50 (SN12C renal): 3.63 µM
- TGI (SN12C renal): 18.1 µM
- GI50 (SK-MEL-2 melanoma): 3.61 µM
- TGI (SK-MEL-2 melanoma): 16.4 µM
- GI50 (HCT-15 colon): 2080 nM
- TGI (HCT-15 colon): 10.7 µM
- GI50 (OVCAR-5 ovarian): 3.13 µM
- TGI (OVCAR-5 ovarian): 8.35 µM
- GI50 (ACHN renal): 4.33 µM
- TGI (ACHN renal): 15.6 µM
- GI50 (OVCAR-3 ovarian): 2280 nM
- TGI (OVCAR-3 ovarian): 5.67 µM
- GI50 (SK-OV-3 ovarian): 10.2 µM
- TGI (SK-OV-3 ovarian): 21.8 µM
- GI50 (HS 578T breast): 2040 nM
- TGI (HS 578T breast): 8.09 µM
- GI50 (UACC-257 melanoma): 4.06 µM
- TGI (UACC-257 melanoma): 17.3 µM
- GI50 (K-562 leukemia): 2510 nM
- TGI (K-562 leukemia): 9.48 µM
- GI50 (SNB-75 CNS): 2750 nM
- TGI (SNB-75 CNS): 15.3 µM
- GI50 (BT-549 breast): 7.14 µM
- TGI (BT-549 breast): 19.8 µM
- GI50 (COLO 205 colon): 3.05 µM
- TGI (COLO 205 colon): 11 µM
- GI50 (EKVX NSCLC): 4.23 µM
- TGI (EKVX NSCLC): 17 µM
- GI50 (A549 NSCLC): 3.98 µM
- TGI (A549 NSCLC): 21.7 µM
- GI50 (OVCAR-8 ovarian): 3.53 µM
- TGI (OVCAR-8 ovarian): 40.8 µM
- GI50 (MCF7 breast): 2350 nM
- TGI (MCF7 breast): 11.2 µM
- GI50 (SF-539 CNS): 2630 nM
- TGI (SF-539 CNS): 7.5 µM
- GI50 (HOP-62 NSCLC): 13.6 µM
- TGI (HOP-62 NSCLC): 27.1 µM
- GI50 (PC-3 prostate): 4.63 µM
- TGI (PC-3 prostate): 21.1 µM
- GI50 (SNB-19 CNS): 5.41 µM
- TGI (SNB-19 CNS): 21.6 µM
- GI50 (HT29 colon): 3.54 µM
- TGI (HT29 colon): 14.4 µM
- GI50 (SF-268 CNS): 3.06 µM
- TGI (SF-268 CNS): 12.7 µM
- GI50 (UO-31 renal): 2310 nM
- TGI (UO-31 renal): 9.8 µM
- GI50 (DU-145 prostate): 2290 nM
- TGI (DU-145 prostate): 6.61 µM
- GI50 (OVCAR-4 ovarian): 3.94 µM
- TGI (OVCAR-4 ovarian): 16.1 µM
- GI50 (LOX IMVI melanoma): 2080 nM
- TGI (LOX IMVI melanoma): 5.88 µM
- GI50 (HCC-2998 colon): 2680 nM
- TGI (HCC-2998 colon): 7.36 µM
- GI50 (MOLT-4 leukemia): 2310 nM
- TGI (MOLT-4 leukemia): 7.21 µM
- GI50 (NCI-H226 lung): 8.34 µM
- TGI (NCI-H226 lung): 24.8 µM
- GI50 (CCRF-CEM leukemia): 1810 nM
- TGI (CCRF-CEM leukemia): 5.16 µM
- GI50 (KM12 colon): 2990 nM
- TGI (KM12 colon): 10 µM
- GI50 (786-0 renal): 4.24 µM
- TGI (786-0 renal): 14.2 µM
- GI50 (M14 melanoma): 3.04 µM
- TGI (M14 melanoma): 14 µM
- GI50 (SF-295 CNS): 4.08 µM
- TGI (SF-295 CNS): 17.3 µM
- GI50 (HCT-116 colon): 2690 nM
- TGI (HCT-116 colon): 9.55 µM
- GI50 (NCI-H23 lung): 2620 nM
- TGI (NCI-H23 lung): 9.83 µM
- GI50 (T-47D breast): 2120 nM
- TGI (T-47D breast): 11 µM
- GI50 (NCI-H522 lung): 1900 nM
- TGI (NCI-H522 lung): 6.65 µM
